Data published in article PMC7933930, “Development of a small molecule that corrects misfolding and increases secretion of Z α1‐antitrypsin” (EMBO Molecular Medicine, 2021).

Assays:
[1] = molecular target: T1, plasma‐purified wild‐type M α1‐antitrypsin (Homo sapiens, UniProt P01009); assay: Competition binding assay with Alexa488‐labelled analogue of GSK716, M α1‐antitrypsin
T1 construct: purified from the plasma of M (wild‐type) and Z α1‐antitrypsin homozygotes; from tissue; host or cells: human plasma of M (wild-type) homozygotes
T1 sequence (P01009 25-418): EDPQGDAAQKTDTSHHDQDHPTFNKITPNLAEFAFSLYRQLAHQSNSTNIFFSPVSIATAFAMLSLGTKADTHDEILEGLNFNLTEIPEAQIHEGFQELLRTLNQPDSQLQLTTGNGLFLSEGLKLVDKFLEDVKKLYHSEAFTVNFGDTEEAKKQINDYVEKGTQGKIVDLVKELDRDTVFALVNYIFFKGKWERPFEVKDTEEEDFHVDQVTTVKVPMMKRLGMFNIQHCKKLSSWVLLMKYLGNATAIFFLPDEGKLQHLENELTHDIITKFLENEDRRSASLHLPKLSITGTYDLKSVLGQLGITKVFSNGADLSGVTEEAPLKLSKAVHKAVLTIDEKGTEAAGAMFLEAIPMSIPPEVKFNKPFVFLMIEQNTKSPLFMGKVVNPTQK
From the text: The shape of the curves and native mass spectrometry (not shown) are consistent with a single high‐affinity compound binding site. No binding of the fluorescent derivative to polymers of Z α1‐antitrypsin was observed, indicating conformational selectivity for the monomeric protein (Fig 1D). The rate of interaction of the compound with the target was monitored through changes in intrinsic tryptophan fluorescence (Dafforn et al, 1999); this property was used to determine the second‐order association rate constants for GSK716 binding to Z (4.1 × 10^4 M^−1 s^−1) and M α1‐antitrypsin (2.1 × 10^2 M^−1 s^−1; Fig 1E and F). […] Therefore, the selectivity of the compound for Z over M α1‐antitrypsin is dominated by the difference in the rate of association rather than dissociation.
Kinetic parameters of GSK716 binding to M, Z, S (Glu264Val) and Baghdad (Ala336Pro) (Haq et al, 2016) α1‐antitrypsin were measured by detecting intrinsic tryptophan fluorescence of the protein (excitation at 280 nm and detection of emission at 320 nm) on a stopped flow apparatus (Applied Photophysics) (Kim & Yu, 1996; Dafforn et al, 1999). […]

CHO‐TET‐ON‐Z‐A1AT cells = assay: Tunicamycin sensitivity, cell viability (Cell Counting Kit‐8), cells expressing Z α1‐antitrypsin; format: cell-based; settings: 10 μM GSK716, cells expressing Z α1‐antitrypsin, tunicamycin 36 h
Experimental: Figure 2 GSK716 inhibits polymerisation of Z α1‐antitrypsin in cell models of disease • A GSK716 was added to CHO‐TET‐ON‐Z‐A1AT cells (Ordóñez et al, 2013) with simultaneous induction of Z α1‐antitrypsin expression using doxycycline, and polymer load was quantified with the 2C1 monoclonal antibody that is specific to pathological polymers of α1‐antitrypsin (Miranda et al, 2010). […] Data were normalised to vehicle and a control compound from the GSK716 series at saturating concentration. […] It induced an approximately threefold increase in secreted levels of Z α1‐antitrypsin compared with vehicle control. This was apparent even after polymers had been allowed to form. Scale bar: 100 µm. Data presented as mean ± SD, n = 8 (secretion) and n = 6 (polymer inhibition). • E CHO tetracycline‐inducible cells expressing Z α1‐antitrypsin were induced with 0.5 μg/ml doxycycline for 48 h and treated with 10 μM GSK716. […] For every time point, NP‐40‐soluble and NP‐40‐insoluble fractions were separated and immunoprecipitated with the 2C1 mAb and resolved by 4–12% w/v SDS–PAGE and α1‐antitrypsin detected by immunoblotting. […] Cell viability was measured by Cell Counting Kit‐8. […] Samples were resolved by 4–12% w/v acrylamide SDS–PAGE and detected by autoradiography. • H The graphs show the effect of GSK716 on intracellular and extracellular Z α1‐antitrypsin (mean ± SEM, n = 2). […]

## CCC[C@@H](NC(=O)c1cccc2c1CC(=O)N2)[C@@H](O)c1cccc(F)c1C [GSK716]
[1]
  selectivity: affinity for Z over M α1‐antitrypsin: 50 fold
[1]; plasma‐purified wild‐type M α1‐antitrypsin, n = 10, mean ± SD, read-out: mean pKD (converted)
  Kd: 158 nM
CHO‐TET‐ON‐Z‐A1AT cells
  sensitivity to tunicamycin (cell viability): restored sensitivity of Z α1‐antitrypsin expressing cells to that of the wild‐type control cells
